One assay deals with A375 cells. The assay is described as follows: XTT assay for cell viability, A375 cells. The format is cell-based. Particulars: Homo sapiens, A-375, 72 h. As to the method:
Cell lines (A375 ATCC No. CRL-1619, A2058 ATCC No. CRL-11147 and RKO ATCC No. CRL-2577, American Type Culture Collection (ATCC), Manassas Va.) once attaining ˜80% confluency were trypsinized, centrifuged and resuspended in fresh media. Cells (1000-2000/per well) were seeded in 96-well plate and incubated over-night at 37° C. in a 5% CO2 incubator. Compound dilutions were prepared in 100% DMSO followed by dilutions in the respective media. The cells were treated with NCEs for 72 h at 37° C. in 5% CO2 incubator. After 72 h, freshly prepared XTT (1 mg/ml)/PMS (25 μM) solution was added, incubated for 2 to 3 h at 37° C. and the absorbance was measured at 450 nm using an ELISA plate reader. Keeping DMSO control as 100%, the effect of the compound to inhibit the cell proliferation was calculated and the GI50 values were determined using sigmoidal dose response curve fit in GraphPad Prism® v5 software.

The test system of a further assay is pERK in A375 cells. The assay is described as follows: In Cell Western (ICW) assay, pERK in A375 cells. The format is cell-based. Particulars: Homo sapiens, A-375, 3 h treatment. The protocol:
Cell lines A375, A2058 and RKO obtained from the ATCC as provided above, were grown, and after attaining ˜80% confluency were trypsinized, centrifuged and resuspended in fresh media. The cells were seeded at the specified density (20,000 to 50,000) in a 96-well format black-well clear bottom plate (Corning) and incubated overnight at 37° C. in a 5% CO2 incubator. The next day, compound dilutions of test compounds were prepared in 100% DMSO followed by dilutions in respective media. Treatment of test compounds was performed for 3 h at 37° C. in 5% CO2 incubator. Following 3 h drug treatment, the conditional media was discarded and the cells were washed once with cPBS (PBS containing 0.1% magnesium chloride hexahydrate and 0.1% anhydrous calcium chloride) and fixed with 4% paraformaldehyde in cPBS for 1 h at rt. After fixing, the cells were given three washes using cPBST (cPBS containing 0.1% Triton™ X-100 reagent) and then blocked using blocking solution (5% skimmed milk powder or 5% BSA prepared in cPBST) for 2 h at rt with shaking at 300 rpm. The cells were again washed thrice with cPBST and incubated with primary antibody phospho-p44/42 MAPK(Erk1/2)(Thr202/204) antibody (Cell Signaling, Catalog # 9101L), phospho S6 ribosomal protein (Cell Signaling, Catalog #4858L), phospho AKT (Thr 308) (Cell Signaling, Catalog #9275) or phospho AKT (Ser 473) (Cell Signaling, Catalog #4060L) in specified dilutions (1:500-1:2500), prepared in respective blocking solutions, in a racker overnight at 4° C. The next day, the cells were washed with 1× Delfia® wash buffer (4×1 wash) and incubated with secondary antibody (Delfia®-Eu-N1 labeled anti-rabbit antibody; PerkinElmer, Catalog #AD0105; dilutions: 1:2000 to 1:6000 in Delfia® assay buffer (PerkinElmer, Catalog #1244-111)) for 2 h at rt in the dark at 300 rpm. The cells were then given four washes with 1× Delfia® wash buffer and incubated with Wallac Delfia® Enhancement solution (100 μL; PerkinElmer, Catalog #1244-105) for 20 min at rt in the dark at 300 rpm. The fluorescence emission was then read at 615 nm with an excitation wavelength of 340 nm using a Victor V5 Fluorometer (Perkin Elmer, US). The cells were then washed once with 1×cPBS and incubated with 100 μL of 0.5 mg/mL of Hoechst 33258 dye prepared in cPBS and read at 460 nm with 355 nm excitation, thereby evaluating the correction factor.
The % inhibition for the test compounds of formula (I) (new chemical entities (NCEs)) was calculated keeping DMSO control as 0% and the IC50 values were determined using sigmoidal dose response curve fit in GraphPad Prism® v5 software.

The target in another assay is T1, mTOR kinase (Homo sapiens, UniProt P42345).
T1 construct: purchased Millipore, US
Briefly: mTOR kinase TR-FRET assay. The class given is biochemical. The procedure, abridged:
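TR-FRET with ULight-p70 S6K (Thr 389) peptide (50 nM) and 20 μM ATP in 50 mM HEPES pH 7.5, 1 mM EGTA, 3 mM MnCl2; compound pre-incubated with enzyme before substrate addition, reaction at rt, EDTA-stopped. Eu anti-phospho antibody read 665/615 nm; IC50 from sigmoidal dose-response fit.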

The next assay concerns the target T2, B-RAFV600E (Homo sapiens, UniProt P15056, V600E).
T2 construct: purchased Millipore, USA 14-557
Briefly: B-RAFV600E radiometric assay. The format is biochemical. The following applies: read-out: Kinase assay B-Raf. The procedure, abridged:
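B-RAFV600E was preincubated 45 min at rt with compound in 1% DMSO. MEK-K97M (0.5 μg), 5 μM final cold ATP and [γ-32P]ATP were then added for 2 h at rt. Phosphorylated MEK was captured on P81 paper and scintillation-counted; IC50 came from a sigmoidal dose-response fit.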

T2 sequence (P15056 416-766 V600E limits assumed): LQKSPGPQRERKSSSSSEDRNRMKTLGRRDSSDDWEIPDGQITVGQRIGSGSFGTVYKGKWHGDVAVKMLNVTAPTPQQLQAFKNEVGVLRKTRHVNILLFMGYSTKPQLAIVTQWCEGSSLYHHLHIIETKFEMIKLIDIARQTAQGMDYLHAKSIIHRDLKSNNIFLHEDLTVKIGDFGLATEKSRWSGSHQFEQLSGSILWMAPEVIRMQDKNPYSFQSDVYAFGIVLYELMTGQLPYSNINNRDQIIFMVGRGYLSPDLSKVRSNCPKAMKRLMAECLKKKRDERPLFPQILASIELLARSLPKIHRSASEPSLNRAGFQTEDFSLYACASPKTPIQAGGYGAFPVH
T1 sequence (P42345 1362-2549 limits assumed): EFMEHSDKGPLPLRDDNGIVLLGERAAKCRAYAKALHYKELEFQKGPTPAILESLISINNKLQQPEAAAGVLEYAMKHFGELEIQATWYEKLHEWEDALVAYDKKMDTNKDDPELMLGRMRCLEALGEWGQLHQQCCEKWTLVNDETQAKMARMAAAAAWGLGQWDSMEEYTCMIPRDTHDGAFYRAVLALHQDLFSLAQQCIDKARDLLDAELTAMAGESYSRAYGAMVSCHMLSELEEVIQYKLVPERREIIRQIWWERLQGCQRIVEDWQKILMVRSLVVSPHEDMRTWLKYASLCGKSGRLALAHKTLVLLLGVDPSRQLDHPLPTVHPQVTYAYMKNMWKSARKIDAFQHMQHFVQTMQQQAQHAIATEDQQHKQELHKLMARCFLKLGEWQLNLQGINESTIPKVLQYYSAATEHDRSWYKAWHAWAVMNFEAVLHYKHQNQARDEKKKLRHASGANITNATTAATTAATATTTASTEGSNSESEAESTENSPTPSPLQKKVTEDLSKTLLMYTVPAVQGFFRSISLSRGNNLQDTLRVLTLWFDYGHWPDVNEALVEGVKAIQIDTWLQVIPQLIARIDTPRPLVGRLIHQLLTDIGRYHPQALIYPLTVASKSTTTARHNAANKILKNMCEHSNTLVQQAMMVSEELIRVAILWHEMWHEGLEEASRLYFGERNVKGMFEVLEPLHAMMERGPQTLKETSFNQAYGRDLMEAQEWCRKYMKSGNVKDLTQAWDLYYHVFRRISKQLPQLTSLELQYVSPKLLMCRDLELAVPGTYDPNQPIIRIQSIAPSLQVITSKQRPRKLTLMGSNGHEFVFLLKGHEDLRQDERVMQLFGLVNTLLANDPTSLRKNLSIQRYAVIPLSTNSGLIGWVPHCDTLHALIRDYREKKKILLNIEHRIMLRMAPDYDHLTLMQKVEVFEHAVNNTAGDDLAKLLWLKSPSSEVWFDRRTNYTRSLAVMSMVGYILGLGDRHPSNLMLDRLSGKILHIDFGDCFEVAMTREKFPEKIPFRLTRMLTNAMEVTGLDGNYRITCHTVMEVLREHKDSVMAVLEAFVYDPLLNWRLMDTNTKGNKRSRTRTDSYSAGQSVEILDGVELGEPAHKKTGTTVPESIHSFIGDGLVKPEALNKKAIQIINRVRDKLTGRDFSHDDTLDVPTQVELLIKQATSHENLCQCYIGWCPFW

For the molecule `COc1cc(-c2cccc(NS(=O)(=O)CCCF)c2F)cc2c(N3CCOCC3)nc(-c3cnc(N)nc3)nc12` [Example 27, N-(3-(2-(2-aminopyrimidin-5-yl)-8-methoxy-4-morpholinoquinazolin-6-yl)-2-fluorophenyl)-3-fluoropropane-1-sulfonamide], the IC50 with A375 cells lay in the range of 100 to 1000 nM; in the assay with pERK in A375 cells, 1 to 100 nM; on mTOR kinase, 100 to 1000 nM; on B-RAFV600E, 1 to 100 nM.

With `COc1cc(-c2cccc(NS(=O)(=O)c3cc(F)ccc3F)c2F)cc2c(N3CCOCC3)nc(-c3ccc(N)nc3)nc12` [Example 28, N-(3-(2-(6-aminopyridin-3-yl)-8-methoxy-4-morpholinoquinazolin-6-yl)-2-fluorophenyl)-2,5-difluorobenzenesulfonamide], the IC50 in the assay with A375 cells lay in the range of 100 to 1000 nM; in the assay with pERK in A375 cells, 1 to 100 nM; against mTOR kinase it was 100 to 1000 nM; on B-RAFV600E it was 1 to 100 nM.

For the molecule `COc1cc(-c2cccc(NS(=O)(=O)c3ccccc3F)c2F)cc2c(N3CCOCC3)nc(-c3ccc(N)nc3)nc12` [Example 29, N-(3-(2-(6-aminopyridin-3-yl)-8-methoxy-4-morpholinoquinazolin-6-yl)-2-fluorophenyl)-2-fluorobenzenesulfonamide], the IC50 lay within 100 to 1000 nM with A375 cells, 1 to 100 nM with pERK in A375 cells, 100 to 1000 nM against mTOR kinase and 1 to 100 nM on B-RAFV600E.

Consider `COc1cc(-c2cccc(NS(=O)(=O)C(C)C)c2F)cc2c(N3CCOCC3)nc(-c3ccc(N)nc3)nc12` [Example 33, N-(3-(2-(6-aminopyridin-3-yl)-8-methoxy-4-morpholinoquinazolin-6-yl)-2-fluorophenyl)propane-2-sulfonamide], for which the IC50 in the assay with A375 cells, with pERK in A375 cells, on mTOR kinase and at B-RAFV600E was 100 to 1000 nM each time.

For `COc1cc(-c2cccc(NS(=O)(=O)c3cccs3)c2F)cc2c(N3CCOCC3)nc(-c3ccc(N)nc3)nc12` [Example 38, N-(3-(2-(6-aminopyridin-3-yl)-8-methoxy-4-morpholinoquinazolin-6-yl)-2-fluorophenyl)thiophene-2-sulfonamide], the IC50 in the assay on A375 cells was 100 to 1000 nM; in the assay on pERK in A375 cells, 1 to 100 nM; against mTOR kinase, 100 to 1000 nM; at B-RAFV600E, 1 to 100 nM.

As for `COc1cc(-c2cccc(NS(=O)(=O)CCCF)c2F)cc2c(N3CCOC[C@@H]3C)nc(-c3ccc(N)nc3)nc12` [Example 41, (S)-N-(3-(2-(6-aminopyridin-3-yl)-8-methoxy-4-(3-methylmorpholino)quinazolin-6-yl)-2-fluorophenyl)-3-fluoropropane-1-sulfonamide], the IC50 with A375 cells is 100 to 1000 nM; with pERK in A375 cells, 1 to 100 nM; at mTOR kinase it was 1 to 100 nM; at B-RAFV600E, 1 to 100 nM.

Turning to `COc1cc(-c2cccc(NS(=O)(=O)CCCF)c2F)cc2c(N3CCOC[C@@H]3C)nc(-c3cnc(N)nc3)nc12` [Example 45, (S)-N-(3-(2-(2-aminopyrimidin-5-yl)-8-methoxy-4-(3-methylmorpholino)quinazolin-6-yl)-2-fluorophenyl)-3-fluoropropane-1-sulfonamide], the IC50 with A375 cells, in the assay with pERK in A375 cells, at mTOR kinase and on B-RAFV600E was 100 to 1000 nM each time.

Consider `Nc1ccc(-c2nc(N3CCOCC3)c3cc(-c4cccc(NS(=O)(=O)CCCF)c4F)ccc3n2)cn1` [Example 46, N-(3-(2-(6-aminopyridin-3-yl)-4-morpholinoquinazolin-6-yl)-2-fluorophenyl)-3-fluoropropane-1-sulfonamide], for which the IC50 with A375 cells lay within 100 to 1000 nM; with pERK in A375 cells, 1 to 100 nM; against mTOR kinase it was 100 to 1000 nM; on B-RAFV600E, 1 to 100 nM.

For the molecule `COc1cc(-c2cccc(NS(=O)(=O)c3ccccc3F)c2F)cc2c(N3CCOCC3)nc(-c3cnc(N)nc3)nc12` [Example 47, N-(3-(2-(2-aminopyrimidin-5-yl)-8-methoxy-4-morpholinoquinazolin-6-yl)-2-fluorophenyl)-2-fluorobenzenesulfonamide], the IC50 with A375 cells was 100 to 1000 nM; in the assay with pERK in A375 cells, 100 to 1000 nM; against mTOR kinase it was 100 to 1000 nM; at B-RAFV600E, 1 to 100 nM.

Regarding `CCOc1cc(-c2cccc(NS(=O)(=O)CCCF)c2F)cc2c(N3CCOCC3)nc(-c3cnc(N)nc3)nc12` [Example 54, N-(3-(2-(2-aminopyrimidin-5-yl)-8-ethoxy-4-morpholinoquinazolin-6-yl)-2-fluorophenyl)-3-fluoropropane-1-sulfonamide], the IC50 in the assay with A375 cells lay in the range of 100 to 1000 nM; with pERK in A375 cells it was 1 to 100 nM; at mTOR kinase, 100 to 1000 nM; on B-RAFV600E, 1 to 100 nM.

For `NC(=O)COc1cc(-c2cccc(NS(=O)(=O)CCCF)c2F)cc2c(N3CCOCC3)nc(-c3ccc(N)nc3)nc12` [Example 60, 2-((2-(6-aminopyridin-3-yl)-6-(2-fluoro-3-(3-fluoropropylsulfonamido)phenyl)-4-morpholino-quinazolin-8-yl)oxy)acetamide], the IC50 is 1000 to 10000 nM in the assay on A375 cells, 1000 to 10000 nM in the assay with pERK in A375 cells, 1 to 100 nM against mTOR kinase and 1 to 100 nM on B-RAFV600E.

For the molecule `Nc1ccc(-c2nc(N3CCOCC3)c3cc(-c4cccc(NS(=O)(=O)CCCF)c4F)cc(N4CCCC4)c3n2)cn1` [Example 70, N-(3-(2-(6-aminopyridin-3-yl)-4-morpholino-8-(pyrrolidin-1-yl)quinazolin-6-yl)-2-fluorophenyl)-3-fluoropropane-1-sulfonamide], the IC50 in the assay on A375 cells is 1 to 100 nM; in the assay with pERK in A375 cells, 100 to 1000 nM; against mTOR kinase, 100 to 1000 nM; at B-RAFV600E, 1 to 100 nM.

Take `Nc1ncc(-c2nc(N3CCOCC3)c3cc(-c4cccc(NS(=O)(=O)CCCF)c4F)cc(N4CCCC4)c3n2)cn1` [Example 71, N-(3-(2-(2-aminopyrimidin-5-yl)-4-morphollno-8-(pyrrolidin-1-yl)quinazolin-6-yl)-2-fluorophenyl)-3-fluoropropane-1-sulfonamide]: the IC50 with A375 cells was 100 to 1000 nM; with pERK in A375 cells, 1 to 100 nM; against mTOR kinase, 1 to 100 nM; at B-RAFV600E, 100 to 1000 nM.

Consider `CCCS(=O)(=O)Nc1ccc(F)c(-c2cc(OC)c3nc(-c4ccc(N)nc4)nc(N4CCOCC4)c3c2)c1F` [Example 75, N-(3-(2-(6-aminopyridin-3-yl)-8-methoxy-4-morpholinoquinazolin-6-yl)-2,4-difluorophenyl)propane-1-sulfonamide], for which the IC50 with A375 cells lay within 100 to 1000 nM; in the assay on pERK in A375 cells, 1 to 100 nM; against mTOR kinase it was 1 to 100 nM; on B-RAFV600E it was 1 to 100 nM.

Regarding `COc1cc(-c2c(F)ccc(NS(=O)(=O)c3c(F)cccc3F)c2F)cc2c(N3CCOCC3)nc(-c3cnc(N)nc3)nc12` [Example 76, N-(3-(2-(2-aminopyrimidin-5-yl)-8-methoxy-4-morpholinoquinazolin-6-yl)-2,4-difluorophenyl)-2,6-difluorobenzenesulfonamide], the IC50 in the assay on A375 cells is 100 to 1000 nM; in the assay on pERK in A375 cells it was 100 to 1000 nM; against mTOR kinase, 100 to 1000 nM; on B-RAFV600E it was 1 to 100 nM.

The values are drawn from US9499495B2, “Quinazolines and azaquinazolines as dual inhibitors of RAS/RAF/MEK/ERK and PI3K/AKT/PTEN/mTOR pathways” (Asana Biosciences, LLC, priority 2013, dated 2016).
